Reference: patent US20240383908A1, “SYNTHESIS AND APPLICATION OF PHOSPHATASE DEGRADER” (HINOVA PHARMACEUTICALS INC., priority 2021, published 2024)

Target: T1, SHP2 protein (Homo sapiens, UniProt Q06124)
T1 sequence (Q06124 1-593): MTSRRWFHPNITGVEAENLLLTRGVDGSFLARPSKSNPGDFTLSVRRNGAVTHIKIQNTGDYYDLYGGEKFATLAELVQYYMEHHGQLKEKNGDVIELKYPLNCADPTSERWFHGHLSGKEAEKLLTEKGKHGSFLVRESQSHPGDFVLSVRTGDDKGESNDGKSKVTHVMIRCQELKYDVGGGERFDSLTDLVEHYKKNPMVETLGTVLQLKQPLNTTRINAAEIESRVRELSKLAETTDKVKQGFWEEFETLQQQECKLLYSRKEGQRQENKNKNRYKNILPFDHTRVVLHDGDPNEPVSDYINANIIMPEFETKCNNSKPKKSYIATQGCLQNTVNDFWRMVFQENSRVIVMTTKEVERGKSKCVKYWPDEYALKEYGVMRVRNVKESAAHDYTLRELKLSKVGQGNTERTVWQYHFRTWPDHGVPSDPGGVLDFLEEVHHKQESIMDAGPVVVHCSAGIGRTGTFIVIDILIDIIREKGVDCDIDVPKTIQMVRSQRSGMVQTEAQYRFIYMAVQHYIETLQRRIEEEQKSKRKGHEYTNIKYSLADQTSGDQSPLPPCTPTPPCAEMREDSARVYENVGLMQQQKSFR
Experiment: Degradation activity on SHP2 protein in MIA Paca-2 cells (Western blot, DC50)
Assay type: cell-based
Design: endogenous in cells; host or cells: MIA Paca-2 cells
Settings: read-out: Degradation activity for differenct cell lines MIA Paca-2 (DC50)
Experimental: (1) MV-411 cells were cultured in the cell culture medium, and then well-growing cells were selected and inoculated in a 12-well plate, with 1 mL/well and 1×10^6 cells/well. The plate was incubated overnight in a 5% CO2 cell incubator at 37° C.
(2) 10 mM storage solution of each drug was prepared using dimethylsulfoxide (DMSO). The stock solution was diluted gradually with DMSO before use, and then 1 μL of the compound solution was added to the cell culture well (to ensure that the DMSO concentration in the culture system was […]), so that the final drug concentration is 100 nM, 10 nM, 3 nM, 1 nM, 0.3 nM, and 0.1 nM. Two wells were set for each concentration. The plate was gently shaken and mixed. Additionally, negative control wells (containing an equal amount of DMSO) and positive control wells were included.
(3) After 24 hours of cultivation, the cells were lysed using RIPA cell lysate, and the proteins were extracted. The protein concentration was measured using a BCA assay kit. 5× concentrated protein buffer was loaded, heated at 100° C. for 5 min, and then the sample was stored at −20° C.
(4) For each well, 30 μg of protein was loaded to polyacrylamide gel for electrophoresis.
(5) The protein was transferred from polyacrylamide gel to PVDF membrane, and sealed at room temperature with 5% skimmed milk for 1 h, which was then incubated with the primary antibodies (Anti-SHP2 rabbit mAb and Anti-GAPDH rabbit mAb) at 4° C. overnight. The membrane was washed three times with TBST solution, 10 minutes for each time. After that, the membrane was incubated with the secondary antibodies (horseradish peroxidase labeled goat anti-rabbit IgG) at room temperature for 2 h, and then washed three times with TBST solution, 10 minutes for each time, followed by exposure.
(6) The images were analyzed with Image J grayscale, and the degradation ratio of protein bands in the test group was calculated, based on the negative control group (DMSO) (100%).
(7) Using the Dose-response-inhibition equation in the data processing software GraphPad Prism 8, the DC50 value was obtained (which represents the drug concentration corresponding to 50% degradation of the target protein).
Using similar methods and different cell lines, the degradation activity of the compound according to the present invention on SHP2 protein of different cell lines was tested under suitable culture conditions.

| DC50 | SMILES |
| --- | --- |
| < 100 nM | CC1(N)CCN(c2cnc(Sc3cccc(NC(=O)C4CC(N5CCC(N6CC=C(c7ccc(C(=O)Nc8ccc9c(c8)CN(C8CCC(=O)NC8=O)C9=O)nn7)CC6)CC5)C4)c3)cn2)CC1 (stereo not shown) [Compound 310] |
| > 1000 nM | CC1(N)CCN(c2cnc(Sc3cccc(NC(=O)C4CC5(C4)CC(N4CC=C(c6ccc(C(=O)NCc7ccc8c(c7)CN(C7CCC(=O)NC7=O)C8=O)nn6)CC4)C5)c3)cn2)CC1 (stereo not shown) [Compound 311] |
| < 100 nM | CC1(N)CCN(c2cnc(Sc3cccc(NC(=O)c4ccc(N5CCC(N6CC=C(c7ccc(C(=O)NCc8ccc9c(c8)CN(C8CCC(=O)NC8=O)C9=O)nc7)CC6)CC5)cc4)c3)cn2)CC1 (stereo not shown) [Compound 312] |
| < 100 nM | CC1(N)CCN(c2cnc(Sc3cccc(NC(=O)c4ccc(N5CCC(N6CC=C(c7ccc(C(=O)Nc8ccc9c(c8)CN(C8CCC(=O)NC8=O)C9=O)nc7)CC6)CC5)cc4)c3)cn2)CC1 (stereo not shown) [Compound 313] |
| < 100 nM | CC1(N)CCN(c2cnc(Sc3cccc(NC(=O)c4ccc(N5CCC(N6CC=C(c7ccc(C(=O)NCc8ccc9c(c8)CN(C8CCC(=O)NC8=O)C9=O)nc7)CC6)CC5)nc4)c3)cn2)CC1 (stereo not shown) [Compound 324] |
| < 100 nM | CC1(N)CCN(c2cnc(Sc3cccc(NC(=O)c4ccc(N5CCC(N6CC=C(c7ccc(C(=O)Nc8ccc9c(c8)CN(C8CCC(=O)NC8=O)C9=O)nc7)CC6)CC5)nc4)c3)cn2)CC1 (stereo not shown) [Compound 325] |
| < 100 nM | CC1(N)CCN(c2cnc(Sc3cccc(NC(=O)c4ccc(N5CCC(N6CC=C(c7ccc(C(=O)NCc8ccc9c(c8)CN(C8CCC(=O)NC8=O)C9=O)nn7)CC6)CC5)nc4)c3)cn2)CC1 (stereo not shown) [Compound 326] |
| < 100 nM | CC1(N)CCN(c2cnc(Sc3cccc(NC(=O)c4ccc(N5CCC(N6CC=C(c7ccc(C(=O)Nc8ccc9c(c8)CN(C8CCC(=O)NC8=O)C9=O)nn7)CC6)CC5)nc4)c3)cn2)CC1 (stereo not shown) [Compound 327] |
| < 100 nM | C[C@@H]1OCC2(CCN(c3cnc(Sc4cccc(NC(=O)c5ccc(N6CCC(N7CC=C(c8ccc(C(=O)NCc9ccc%10c(c9)CN(C9CCC(=O)NC9=O)C%10=O)nn8)CC7)CC6)cc5)c4)cn3)CC2)[C@@H]1N (stereo partly shown) [Compound 328] |
| < 100 nM | CC1(N)CCN(c2cnc(Sc3cccc(NC(=O)c4ccc(N5CCC(N6CC=C(c7ccc(C(=O)NCc8ccc9c(c8)CN(C8CCC(=O)NC8=O)C9=O)nn7)CC6)CC5)c(F)c4)c3)cn2)CC1 (stereo not shown) [Compound 329] |
| < 100 nM | CC1(N)CCN(c2cnc(Sc3cccc(NC(=O)c4ccc(N5CCC(N6CC=C(c7ccc(C(=O)Nc8ccc9c(c8)CN(C8CCC(=O)NC8=O)C9=O)nn7)CC6)CC5)cc4)c3)cn2)CC1 (stereo not shown) [Compound 330] |
| > 1000 nM | CC1(N)CCN(c2cnc(Sc3cccc(NC(=O)C(C)(C)c4ccc(N5CCN(c6ccc(C(=O)NCc7ccc8c(c7)CN(C7CCC(=O)NC7=O)C8=O)nc6)CC5)cc4)c3)cn2)CC1 (stereo not shown) [Compound 331] |
| > 1000 nM | CC1(N)CCN(c2cnc(Sc3cccc(NC(=O)C4(c5ccc(N6CCN(c7ccc(C(=O)NCc8ccc9c(c8)CN(C8CCC(=O)NC8=O)C9=O)nc7)CC6)cc5)CC4)c3)cn2)CC1 (stereo not shown) [Compound 332] |
| > 1000 nM | CC1(N)CCN(c2cnc(Sc3cccc(N4CCC(C(=O)N5CCN(c6ccc7c(c6)CN(C6CCC(=O)NC6=O)C7=O)CC5)CC4)c3)cn2)CC1 (stereo not shown) [Compound 333] |
| > 1000 nM | CC1(N)CCN(c2cnc(Sc3cccc(NC(=O)c4ccc(N5CCC(C(=O)N6CCN(c7ccc8c(c7)CN(C7CCC(=O)NC7=O)C8=O)CC6)CC5)c(F)c4)c3)cn2)CC1 (stereo not shown) [Compound 335] |
| < 100 nM | NC1(CO)CCN(c2cnc(Sc3cccc(NC(=O)c4ccc(N5CCC(N6CC=C(c7ccc(C(=O)NCc8ccc9c(c8)CN(C8CCC(=O)NC8=O)C9=O)nc7)CC6)CC5)cc4)c3)cn2)CC1 (stereo not shown) [Compound 336] |
| < 100 nM | NC1CCN(c2cnc(Sc3cccc(NC(=O)c4ccc(N5CCC(N6CC=C(c7ccc(C(=O)NCc8ccc9c(c8)CN(C8CCC(=O)NC8=O)C9=O)nc7)CC6)CC5)cc4)c3)cn2)CC1F (stereo not shown) [Compound 337] |

| DC50 | SMILES |
| --- | --- |
| < 100 nM | COc1nc(C2=CCN(C3CCN(c4ccc(C(=O)Nc5cccc(Sc6cnc(N7CCC(C)(N)CC7)cn6)c5)cc4)CC3)CC2)ccc1C(=O)NCc1ccc2c(c1)CN(C1CCC(=O)NC1=O)C2=O (stereo not shown) [Compound 338] |
| < 100 nM | CC1(N)CCN(c2cnc(Sc3cccc(NC(=O)C4CCC(N5CCC(N6CC=C(c7ccc(C(=O)NCc8ccc9c(c8)CN(C8CCC(=O)NC8=O)C9=O)nn7)CC6)CC5)CC4)c3)cn2)CC1 (stereo not shown) [Compound 339] |
| > 1000 nM | CC1(N)CCN(c2cnc(Sc3cccc(NC(=O)c4cnc(N5CCC(N6CC=C(c7ccc(C(=O)NCc8ccc9c(c8)CN(C8CCC(=O)NC8=O)C9=O)nc7)CC6)CC5)o4)c3)cn2)CC1 (stereo not shown) [Compound 340] |
| > 1000 nM | CC1(N)CCN(c2cnc(Sc3cccc(N4CCC(CN5CCN(c6ccc7c(c6)CN(C6CCC(=O)NC6=O)C7=O)CC5)CC4)c3)cn2)CC1 (stereo not shown) [Compound 341] |
| > 1000 nM | CC1(N)CCN(c2cnc(Sc3cccc(NC(=O)c4csc(N5CCC(N6CC=C(c7ccc(C(=O)NCc8ccc9c(c8)CN(C8CCC(=O)NC8=O)C9=O)nc7)CC6)CC5)n4)c3)cn2)CC1 (stereo not shown) [Compound 358] |
| < 100 nM | CC1(N)CCN(c2cnc(Sc3cccc(NC(=O)c4ccc(N5CCC(N6CC=C(c7ncc(C(=O)NCc8ccc9c(c8)CN(C8CCC(=O)NC8=O)C9=O)cc7C(F)(F)F)CC6)CC5)cc4)c3)cn2)CC1 (stereo not shown) [Compound 359] |
| < 100 nM | CC1(N)CCN(c2cnc(Sc3cccc(NC(=O)c4ccc(C5=CCC(N6CC=C(c7ccc(C(=O)NCc8ccc9c(c8)CN(C8CCC(=O)NC8=O)C9=O)nn7)CC6)CC5)cc4)c3)cn2)CC1 (stereo not shown) [Compound 368] |
| < 100 nM | CC1(N)CCN(c2cnc(Sc3cccc(NC(=O)c4ccc(N5CCC(N6CCC(c7ccc(C(=O)NCc8ccc9c(c8)CN(C8CCC(=O)NC8=O)C9=O)nc7)CC6)CC5)cc4)c3)cn2)CC1 (stereo not shown) [Compound 372] |
| > 1000 nM | NC1CCN(c2cnc(Sc3cccc(NC(=O)c4ccc(N5CCC(N6CC=C(c7ccc(C(=O)NCc8ccc9c(c8)CN(C8CCC(=O)NC8=O)C9=O)nn7)CC6)CC5)cc4)c3)cn2)CC1F (stereo not shown) [Compound 376] |
| < 100 nM | CC1(N)CCN(c2cnc(Sc3cccc(NC(=O)c4ccc(N5CCC(N6CCN(c7ccc(C(=O)NCc8ccc9c(c8)CN(C8CCC(=O)NC8=O)C9=O)nn7)CC6)CC5)cc4)c3)cn2)CC1 (stereo not shown) [Compound 389] |
| < 100 nM | CC1(N)CCN(c2cnc(Sc3cccc(NC(=O)c4ccc(N5CCC(N6CCN(c7ccc(C(=O)NCc8ccc9c(c8)CN(C8CCC(=O)NC8=O)C9=O)nc7)CC6)CC5)cc4F)c3)cn2)CC1 (stereo not shown) [Compound 392] |
| < 100 nM | CC1(N)CCN(c2cnc(Sc3cccc(NC(=O)c4ccc(N5CCC(N6CC=C(c7ccc(C(=O)NCc8ccc9c(c8)CN(C8CCC(=O)NC8=O)C9=O)nn7)CC6)C5)cc4)c3)cn2)CC1 (stereo not shown) [Compound 402] |
| > 1000 nM | CC1(N)CCN(c2cnc(Sc3cccc(NC(=O)c4cc(N5CCC(N6CC=C(c7ccc(C(=O)NCc8ccc9c(c8)CN(C8CCC(=O)NC8=O)C9=O)nn7)CC6)CC5)cs4)c3)cn2)CC1 (stereo not shown) [Compound 404] |
| > 1000 nM | CC1(N)CCN(c2cnc(-c3cccc(NC(=O)c4ccc(N5CCC(N6CC=C(c7ccc(C(=O)NCc8ccc9c(c8)CN(C8CCC(=O)NC8=O)C9=O)nn7)CC6)CC5)cc4)c3)cn2)CC1 (stereo not shown) [Compound 407] |
| > 1000 nM | CC1(N)CCN(c2ccc(-c3cccc(NC(=O)c4ccc(N5CCC(N6CC=C(c7ccc(C(=O)NCc8ccc9c(c8)CN(C8CCC(=O)NC8=O)C9=O)nn7)CC6)CC5)cc4)c3)cn2)CC1 (stereo not shown) [Compound 408] |
| < 100 nM | C[C@@H]1OCC2(CCN(c3cnc(Sc4cccc(NC(=O)c5ccc(N6CCC(N7CC=C(c8ccc(C(=O)NCc9ccc%10c(c9)CN(C9CCC(=O)NC9=O)C%10=O)nc8)CC7)CC6)cc5)c4)cn3)CC2)[C@@H]1N (stereo partly shown) [Compound 411] |
| < 100 nM | CC1(N)CCN(c2cnc(Sc3cccc(NC(=O)c4ccc(N5CCC(N6CC=C(c7cnc(C(=O)NCc8ccc9c(c8)CN(C8CCC(=O)NC8=O)C9=O)c(Cl)c7)CC6)CC5)c(F)c4)c3)cn2)CC1 (stereo not shown) [Compound 413] |
